Assay results: patent publication US20090082438A1, “Coordination Compound Composed of Diaminocyclohexane Platinum (II) and Block Copolymer and Anti-Cancer Agent Comprising the Same” (priority 2005, published 2009)
Where a name gives a salt, the structure may show the parent alone.

What was measured:
[1] = test system: mouse colon cancer Colon-26 cell line; assay: Treating Test Example 2: anti-tumor and life-prolongation effect, i.v. administration to Colon-26-transplanted CDF1 mice; format: in vivo
[2] = Treating Test Example 2: toxicity (body weight change, deaths) in treated CDF1 mice; details: 10 mg/kg
Source text: In this experiment, the treatment was started on the 9th day after the tumor transplantation.

For `O=C1[O][Pt-2]2([NH2+]C3CCCC[C@H]3[NH2+]2)[O]C1=O` (stereo partly shown) [oxaliplatin, oxalate (1,2-diaminocyclohexane)platinum (II)], the “life-prolonging effect (survival)” value ([1]; doses 2, 4 or 6 mg/kg oxaliplatin) was “little life-prolonging effect”, the “remarkable tumor growth-inhibiting effect” value ([1]; oxaliplatin up to 10 mg/kg, every third day, three times) was “not observed” and the “body weight reduction to” value [2] was 80%. For the same compound, the “deaths compared with untreated group (survival number)” value [2] was “earlier deaths than the untreated group”.
